23 molecules from patent publication US20240158394A1, “NEK7 INHIBITORS” (Halia Therapeutics, Inc., priority 2022, published 2024) can be followed below.

Bounds are passed on as bounds.

full-length recombinant human NEK7, sequence (Q8TDX7 whole entry): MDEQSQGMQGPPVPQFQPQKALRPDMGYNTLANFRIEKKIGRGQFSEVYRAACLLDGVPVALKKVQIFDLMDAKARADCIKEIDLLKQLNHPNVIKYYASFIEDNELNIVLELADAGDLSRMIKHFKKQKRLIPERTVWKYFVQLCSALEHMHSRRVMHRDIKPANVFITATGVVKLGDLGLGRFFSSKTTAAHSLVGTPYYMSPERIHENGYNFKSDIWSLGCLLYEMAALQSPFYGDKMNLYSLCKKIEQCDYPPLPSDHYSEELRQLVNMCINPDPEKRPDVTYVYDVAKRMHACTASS

This assay concerns the target full-length recombinant human NEK7 (Homo sapiens (Human), UniProt Q8TDX7). Briefly: NEK7 Enzymatic Assay. It is filed as biochemical. Particulars: casein substrate, [33P]-ATP, 2 hours at room temperature. The procedure: Casein substrate (from bovine milk, hydrolyzed and partially dephosphorylated mixture of α, β and κ caseins, obtained from Sigma Aldrich, catalogue #C4765, diluted in distilled water to a final concentration of 1 mg/mL) and full-length recombinant human NEK7 (expressed by baculovirus in Sf9 insect cells using a N-terminal GST tag, obtained from SignalChem, catalogue #N09-10G, 0.1 μg/μL) were mixed in assay buffer (20 mM HEPES pH 7.5, 10 mM MgCl2, 1 mM EGTA, 0.02% Brij35, 0.02 mg/mL BSA, 0.1 mM Na3VO4, 2 mM DTT, 1% DMSO). Compounds of interest (serial 3-fold dilution in DMSO from 10 μM to 0.5 nM) or vehicle (1% DMSO) were dispensed into the kinase reaction mixture by Acoustic technology (Echo550; nanoliter range). After incubation at room temperature for 20 minutes, the kinase reaction was initiated by addition of [^33P]-ATP (specific activity 10 μCi/μL) and the mixture was incubated at room temperature for 2 hours. The reaction was then stopped by spotting the reaction mixture on strips of phosphocellulose P81 paper. Following washing, the radioactivity of the P81 paper was measured and kinase activity data were expressed as the percent remaining kinase activity in test samples compared to vehicle reactions. IC50 values and curve fits were obtained using Prism (GraphPad Software).
As to `Nc1ncnc2c1c(-c1ccc(NC(=O)Nc3cc(C4(C(F)(F)F)CC4)on3)c3nc(C(F)(F)F)cn13)cn2C1CC1` [Example I-46, 1-(5-(4-amino-7-cyclopropyl-7H-pyrrolo[2,3-d]pyrimidin-5-yl)-2-(trifluoromethyl)-imidazo[1,2-a]pyridin-8-yl)-3-(5-(1-(trifluoromethyl)cyclo-propyl)isoxazol-3-yl)urea], the 50% inhibitory concentration (IC50) was more than 2000 nM.
With `Nc1ncnc2c1c(-c1ccc(NC(=O)Nc3cc(C4(C(F)(F)F)CC4)no3)c3ncccc13)cn2C1CC1` [Example I-3, 1-(5-(4-amino-7-cyclopropyl-7H-pyrrolo[2,3-d]pyrimidin-5-yl)quinolin-8-yl)-3-(3-(1-(trifluoromethyl)cyclopropyl)-isoxazol-5-yl)urea] the figure was more than 2000 nM; with `CC(C)n1cc(-c2ccc(NC(=O)Nc3ccc(CN4CCN(C)CC4)c(C(F)(F)F)c3)c3nccn23)c2c(N)ncnc21` [Example I-128, 1-(5-(4-amino-7-isopropyl-7H-pyrrolo[2,3-d]pyrimidin-5-yl)imidazo[1,2-a]pyridin-8-yl)-3-(4-((4-methylpiperazin-1-yl)methyl)-3-(trifluorometh-yl)phenyl)urea], less than 200 nM.
As to `CC1(c2cc(NC(=O)Nc3ccc(-c4cn(C5CC5)c5ncnc(N)c45)n4ccnc34)on2)CC1` [Example I-18, 1-(5-(4-amino-7-cyclopropyl-7H-pyrrolo[2,3-d]pyrimidin-5-yl)imidazo[1,2-a]pyridin-8-yl)-3-(3-(1-methylcyclo-propyl)isoxazol-5-yl)urea], the IC50 was less than 200 nM.
Next, `CC1Cc2c(-c3cn(C4CC4)c4ncnc(N)c34)ccc(NC(=O)Nc3ccc(CN4CCN(C)CC4)c(C(F)(F)F)c3)c2O1` (centres unmarked) [Example I-57, 1-(4-(4-amino-7-cyclopropyl-7H-pyrrolo[2,3-d]pyrimidin-5-yl)-2-methyl-2,3-dihydro-benzofuran-7-yl)-3-(4-((4-methylpiperazin-1-yl)methyl)-3-(trifluoromethyl)phenyl)urea]: 500 to 2000 nM.
Next, `CCN1CCC(Oc2ccc(NC(=O)Nc3ccc(-c4cn(C5CC5)c5ncnc(N)c45)c4c3OC(C)C4)cc2C(F)(F)F)CC1` (centres unmarked) [Example I-121, 1-(4-(4-amino-7-cyclopropyl-7H-pyrrolo[2,3-d]pyrimidin-5-yl)-2-methyl-2,3-dihydro-benzofuran-7-yl)-3-(4-((1-ethylpiperidin-4-yl)oxy)-3-(trifluoromethyl)phenyl)urea]: more than 2000 nM; `COCCN1CCN(Cc2ccc(NC(=O)Nc3ccc(-c4cn(C5CC5)c5ncnc(N)c45)n4ccnc34)cc2C(F)(F)F)CC1` [Example I-40, 1-(5-(4-amino-7-cyclopropyl-7H-pyrrolo[2,3-d]pyrimidin-5-yl)imidazo[1,2-a]pyridin-8-yl)-3-(4-((4-(2-methoxyeth-yl)piperazin-1-yl)methyl)-3-(trifluoromethyl)phenyl)urea]: less than 200 nM.
With `CN1CCC(Oc2ccc(NC(=O)Nc3ccc(-c4cn(C5CC5)c5ncnc(N)c45)c4cnoc34)cc2C(F)(F)F)CC1` [Example I-70, 1-(4-(4-amino-7-cyclopropyl-7H-pyrrolo[2,3-d]pyrimidin-5-yl)benzo[d]isoxazol-7-yl)-3-(4-((1-methylpiperidin-4-yl)oxy)-3-(trifluoromethyl)-phenyl)urea] the figure was less than 200 nM; with `CN1CCN(Cc2ccc(NC(=O)Nc3ccc(-c4cn(CCO)c5ncnc(N)c45)n4ccnc34)cc2C(F)(F)F)CC1` [Example I-130, 1-(5-(4-amino-7-(2-hydroxy-ethyl)-7H-pyrrolo[2,3-d]pyr-imidin-5-yl)imidazo[1,2-a]-pyridin-8-yl)-3-(4-((4-meth-ylpiperazin-1-yl)methyl)-3-(trifluoromethyl)phenyl)urea], less than 200 nM.
As to `Nc1ncnc2c1c(-c1cnc(NC(=O)Nc3cc(C4(C(F)(F)F)CC4)on3)c3nccn13)cn2C1CC1` [Example I-50, 1-(5-(4-amino-7-cyclopropyl-7H-pyrrolo[2,3-d]pyrimidin-5-yl)imidazo[1,2-a]pyrazin-8-yl)-3-(5-(1-(trifluoromethyl)-cyclopropyl)isoxazol-3-yl)urea], the IC50 was more than 2000 nM.
With `CC1(C)Cc2c(-c3cn(C4CCC4)c4ncnc(N)c34)ccc(NC(=O)Nc3cc(C4(C(F)(F)F)CC4)on3)c2O1` [Example I-122, 1-(4-(4-amino-7-cyclobutyl-7H-pyrrolo[2,3-d]pyrimidin-5-yl)-2,2-dimethyl-2,3-dihydrobenzofuran-7-yl)-3-(5-(1-(trifluoromethyl)cyclo-propyl)isoxazol-3-yl)urea] the figure was 500 to 2000 nM; with `CN1CCN(Cc2ccc(NC(=O)Nc3ccc(-c4cn(C5CC5)c5ncnc(N)c45)c4nonc34)cc2C(F)(F)F)CC1` [Example I-78, 1-(7-(4-amino-7-cyclopropyl-7H-pyrrolo[2,3-d]pyrimidin-5-yl)benzo[c][1,2,5]oxadiazol-4-yl)-3-(4-((4-methylpiperazin-1-yl)methyl)-3-(trifluorometh-yl)phenyl)urea], less than 200 nM.
Take `Nc1ncnc2c1c(-c1ccc(NC(=O)Nc3cc(C4(C(F)(F)F)CCC4)on3)c3nccn13)cn2C1CC1` [Example I-33, 1-(5-(4-amino-7-cyclopropyl-7H-pyrrolo[2,3-d]pyrimidin-5-yl)imidazo[1,2-a]pyridin-8-yl)-3-(5-(1-(trifluoromethyl)-cyclobutyl)isoxazol-3-yl)urea]: the IC50 is 200 to 500 nM.
With `Nc1ncnc2c1c(-c1ccc(NC(=O)Nc3cc(C4(C(F)(F)F)CC4)on3)c3nccn13)cn2C1CCC1` [Example I-84, 1-(5-(4-amino-7-cyclobutyl-7H-pyrrolo[2,3-d]pyrimidin-5-yl)imidazo[1,2-a]pyridin-8-yl)-3-(5-(1-(trifluoromethyl)-cyclopropyl)isoxazol-3-yl)urea] the figure was less than 200 nM.
Regarding `Nc1ncnc2c1c(-c1ccc(NC(=O)Nc3cc(C4CC4)on3)c3nccn13)cn2C1CC1` [Example I-120, 1-(5-(4-amino-7-cyclopropyl-7H-pyrrolo[2,3-d]pyrimidin-5-yl)imidazo[1,2-a]pyridin-8-yl)-3-(5-cyclopropylisoxazol-3-yl)urea], the IC50 was less than 200 nM.
With `CN1CCN(Cc2ccc(NC(=O)Nc3ccc(-c4cn(CC(C)(C)O)c5ncnc(N)c45)n4ccnc34)cc2C(F)(F)F)CC1` [Example I-131, 1-(5-(4-amino-7-(2-hydroxy-2-methylpropyl)-7H-pyrrolo[2,3-d]pyrimidin-5-yl)imidazo[1,2-a]pyridin-8-yl)-3-(4-((4-meth-ylpiperazin-1-yl)methyl)-3-(trifluoromethyl)phenyl)urea] the figure was less than 200 nM.
Next, `CN1CCN(Cc2ccc(NC(=O)Nc3ccc(-c4cn(C5CC5)c5ncnc(N)c45)c4c3OC(C)(C)C4)cc2C(F)(F)F)CC1` [Example I-60, 1-(4-(4-amino-7-cyclopropyl-7H-pyrrolo[2,3-d]pyrimidin-5-yl)-2,2-dimethyl-2,3-dihydrobenzofuran-7-yl)-3-(4-((4-methylpiperazin-1-yl)-methyl)-3-(trifluoromethyl)-phenyl)urea]: more than 2000 nM; `Cc1ccc(-n2nc(C(C)(C)C)cc2NC(=O)Nc2ccc(-c3cn(C4CC4)c4ncnc(N)c34)n3ccnc23)cc1` [Example I-12, 1-(5-(4-amino-7-cyclopropyl-7H-pyrrolo[2,3-d]pyrimidin-5-yl)imidazo[1,2-a]pyridin-8-yl)-3-(3-(tert-butyl)-1-(p-tolyl)-1H-pyrazol-5-yl)urea]: 200 to 500 nM.
Next, `CC1Cc2c(-c3cn(C4CC4)c4ncnc(N)c34)ccc(NC(=O)Nc3ccc(OC4CCN(C)CC4)c(C(F)(F)F)c3)c2O1` (centres unmarked) [Example I-58, 1-(4-(4-amino-7-cyclopropyl-7H-pyrrolo[2,3-d]pyrimidin-5-yl)-2-methyl-2,3-dihydro-benzofuran-7-yl)-3-(4-((1-methylpiperidin-4-yl)oxy)-3-(trifluoromethyl)phenyl)urea]: more than 2000 nM; `CC1(C)Cc2c(-c3cn(C4CC4)c4ncnc(N)c34)ccc(NC(=O)Nc3cc(C4(C(F)(F)F)CC4)on3)c2O1` [Example I-59, 1-(4-(4-amino-7-cyclopropyl-7H-pyrrolo[2,3-d]pyrimidin-5-yl)-2,2-dimethyl-2,3-dihydrobenzofuran-7-yl)-3-(5-(1-(trifluoromethyl)cyclo-propyl)isoxazol-3-yl)urea]: 200 to 500 nM.
As for `CC1(c2cc(NC(=O)Nc3ccc(-c4cn(C5CC5)c5ncnc(N)c45)n4ccnc34)on2)CCC1` [Example I-19, 1-(5-(4-amino-7-cyclopropyl-7H-pyrrolo[2,3-d]pyrimidin-5-yl)imidazo[1,2-a]pyridin-8-yl)-3-(3-(1-methylcyclobutyl)-isoxazol-5-yl)urea], the IC50 is 200 to 500 nM.
For the molecule `CCN1CCC(Oc2ccc(NC(=O)Nc3ccc(-c4cn(C5CC5)c5ncnc(N)c45)c4c3OC(C)(C)C4)cc2C(F)(F)F)CC1` [Example I-123, 1-(4-(4-amino-7-cyclopropyl-7H-pyrrolo[2,3-d]pyrimidin-5-yl)-2,2-dimethyl-2,3-dihydrobenzofuran-7-yl)-3-(4-((1-ethylpiperidin-4-yl)oxy)-3-(trifluoromethyl)phenyl)urea], the IC50 was more than 2000 nM.
Next, `Nc1ncnc2c1c(-c1ccc(NC(=O)Nc3ccc(CN4CCN(CCF)CC4)c(C(F)(F)F)c3)c3nccn13)cn2C1CC1` [Example I-41, 1-(5-(4-amino-7-cyclopropyl-7H-pyrrolo[2,3-d]pyrimidin-5-yl)imidazo[1,2-a]pyridin-8-yl)-3-(4-((4-(2-fluoroethyl)-piperazin-1-yl)methyl)-3-(trifluoromethyl)phenyl)urea]: less than 200 nM.
